Reference: patent publication US20260183303A1, “PDK1 REGULATORY COMPOUND AND COMPOSITION CONTAINING THE SAME” (PROVIBIO CO., LTD., priority 2024, published 2026)
Where a name gives a salt, the structure may show the parent alone.

Columns and labels:
[1] = system: T cells isolated from mouse spleens; assay: T cell proliferation inhibition (CFSE flow cytometry, anti-CD3/anti-CD28 activation); type: cell-based, C57BL/6 mice; conditions: mouse spleen T cells, CD3/CD28 activated, cultured three days; for inhibition at 0.01 µM / inhibition at 0.1 µM / inhibition at 1 µM / inhibition at 10 µM / inhibition at 30 µM / inhibition at 50 µM: Mus musculus, T-cell, 72 h, read-out: Proliferation inhibition rate (%)
Description: To verify the T cell proliferation inhibitory effect of the compounds according to the present invention, the following experiment was performed based on flow cytometry analysis using carboxyfluorescein diacetate succinimidyl ester (CFSE), a fluorescent dye that binds to intracellular molecules via covalent bonds.
Spleens were extracted from 7-week-old C57BL/6 mice, ground, and then separated into single cells using a strainer ([…], SPL). Red blood cells were removed using ACK (Ammonium-Chloride-Potassium) lysis buffer to isolate white blood cells.
Finally, using a MACS Magnetic Stand and LS column, T cells were isolated from the spleen.
The T cells isolated from the spleen were resuspended in 1 mL of free medium (RPMI-1640+200 U/mL penicillin+200 μg/mL streptomycin), and 0.3 μL of CFSE (10 mM) was added. The mixture was incubated at 37° C. for 5 minutes.
Free medium (10 mL) was added to stop the reaction, and the cells were centrifuged to obtain the cell pellet.
RPMI 1640 medium containing 10% FBS, 100 U/mL penicillin, 100 μg/mL streptomycin, and resuspended the cells. The cells were then seeded into a 96-well plate at a density of 2×10^5 cells per well and activated with CD3 and CD28 antibodies ([…]) to activate T cells.
The compound diluted in DMSO was added at concentrations of 10 nM, 100 nM, 1 μM, […], 30 μM, and 50 µM, with three wells per concentration, and cultured at 37° C. and 5% CO2 for three days. The cells were then analyzed using a FACS Canto instrument.
The proliferation inhibition rate (%) was calculated using the following formula: […]

[2] = system: Human B Lymphocyte cell line, SU-DHL-8; assay: Relative cell viability (CCK-8), SU-DHL-8; type: cell-based; conditions: for viability at 1 µM / viability at 10 µM / viability at 30 µM / viability at 50 µM: Homo sapiens, SU-DHL-8, 48 h; for viability at 1 µM: read-out: Relative cell viability (%), SU-DHL-8, 1 μM, untreated cells (DMSO) = 100%; for viability at 10 µM: read-out: Relative cell viability (%), SU-DHL-8, 10 μM, untreated cells (DMSO) = 100%; for viability at 30 µM: read-out: Relative cell viability (%), SU-DHL-8, 30 μM, untreated cells (DMSO) = 100%; for viability at 50 µM: read-out: Relative cell viability (%), SU-DHL-8, 50 μM, untreated cells (DMSO) = 100%; for Relative cell viability (%): 48 hours, untreated cells (DMSO) = 100%
Description: Human-derived B lymphoma cell line SU-DHL-8 (Cat. #CRL-2961) purchased from ATCC was cultured in RPMI-1640 medium containing […], 100 U/mL penicillin, and 100 μg/mL streptomycin.
The cell culture medium was then harvested, centrifuged at 1,300 rpm for 5 minutes, and the supernatant was removed. The cells were resuspended in the same medium and dispensed into a 96-well plate (Costar 96-well cell culture plate, Corning) at 90 μL per well, resulting in the conditions specified in Table 5.
Then, 10 μL of CCK-8 was added to each well, and the plates were incubated again at 37° C. in a 5% CO2 incubator for 4 hours.
In other words, when the survival rate of untreated cells (DMSO) is set at 100%, the relative cell survival rate in each group treated with the drug at different concentrations is indicated.

| Compound | inhibition at 0.01 µM ([1]; 10 nM) [%] | inhibition at 0.1 µM ([1]; 100 nM) [%] | inhibition at 1 µM ([1]; 1 μM) [%] | inhibition at 10 µM ([1]; 10 μM) [%] | inhibition at 30 µM ([1]; 30 μM) [%] | inhibition at 50 µM ([1]; 50 μM) [%] | viability at 1 µM [2] [%] | viability at 10 µM [2] [%] | viability at 30 µM [2] [%] | viability at 50 µM [2] [%] | Proliferation inhibition rate (%) ([1]; 100 nM) | Proliferation inhibition rate (%) ([1]; 1 μM) | Proliferation inhibition rate (%) ([1]; 10 μM) | Proliferation inhibition rate (%) ([1]; 30 μM) | Proliferation inhibition rate (%) ([1]; 50 μM) | Relative cell viability (%) ([2]; SU-DHL-8, 1 μM) | Proliferation inhibition rate (%) ([1]; 10 nM) | Relative cell viability (%) ([2]; SU-DHL-8, 30 μM) | Relative cell viability (%) ([2]; SU-DHL-8, 50 μM) | Relative cell viability (%) ([2]; SU-DHL-8, 10 μM) |
| --- | --- | --- | --- | --- | --- | --- | --- | --- | --- | --- | --- | --- | --- | --- | --- | --- | --- | --- | --- | --- |
| CC(C)(C)OC(=O)N[C@H]1CCN(CCCCCCCCCCCCNC(=O)c2cccnc2N)C1 [Compound 49, tert-Butyl(S)-(1-(12-(2-aminonicotinamido)dodecyl)pyrrolidin-3-yl)carbamate] | -22.6 | 100 | 100 | 100 | 100 | 100 | 8.93 | 8.02 | 7.48 | 4.09 |  |  |  |  |  |  |  |  |  |  |
| Cl.Nc1ncccc1C(=O)NCCCCCCCCCCCCN1CC[C@H](N)C1 [Compound 50, (S)-2-Amino-N-(12-(3-aminopyrrolidin-1-yl)dodecyl) nicotinamide hydrochloride] |  |  |  |  |  |  |  |  |  |  | 100.00 | 100.00 | 100.00 | 100.00 | 100.00 | 9.20 |  |  |  |  |
| Cc1ccc(OC2CCN(CCCCCCCCCCCCNC(=O)c3cccnc3N)CC2)cc1 [Compound 51, 2-Amino-N-(12-(4-(p-tolyloxy)piperidin-1-yl)dodecyl) nicotinamide] |  |  |  |  |  |  |  |  |  |  |  | 100.00 | 100.00 | 100.00 | 100.00 |  | 0.77 | 0.89 | 0.48 |  |
| Cc1ccc(C2CCN(CCCCCCCCCCCCNC(=O)c3cccnc3N)CC2)cc1 [Compound 55, 2-Amino-N-(12-(4-(p-tolyl)piperidin-1-yl)dodecyl) nicotinamide] |  |  |  |  |  |  |  |  |  |  | 100.00 | 100.00 | 100.00 | 100.00 | 100.00 |  |  | 1.10 | 0.97 |  |
| O=C(NCCCCCCCCCCCCN1CCNCC1)c1ccc(-c2ccccc2)o1 [Compound 90, 5-Phenyl-N-(12-(piperazin-1-yl)dodecyl)furan-2-carboxamide hydrochloride] | -8.27 | -2.03 | 66.2 | 100 | 100 | 100 | 7.19 | 5.94 | 2.48 | 1.94 |  |  |  |  |  |  |  |  |  |  |
| CN1CCN(C2CCN(CCCCCCCCCCCCNC(=O)c3cccnc3N)CC2)CC1 [Compound 124, 2-Amino-N-(12-(4-(4-methylpiperazin-1-yl)piperidin-1-yl)dodecyl) nicotinamide] |  |  |  |  |  |  |  |  |  |  | 20.00 | 30.00 | 100.00 | 100.00 | 100.00 | 30.43 | 0.00 | 32.10 | 31.72 | 30.70 |
